The results in this text go back to ChEMBL document CHEMBL3132757, “A new class of fluorinated 5-pyrrolidinylsulfonyl isatin caspase inhibitors for PET imaging of apoptosis” (Medchemcomm, 2013).

Series [1] deals with Caspase-8 (Homo sapiens, UniProt Q14790). The series is described as follows: Inhibition of recombinant human caspase-8 expressed in Escherichia coli using Ac-IETD-AMC as substrate preincubated for 30 mins before substrate addition measured after 2 hrs.
Series [2] deals with T1, Caspase-6 (Homo sapiens, UniProt P55212).
T1 sequence (P55212 whole entry): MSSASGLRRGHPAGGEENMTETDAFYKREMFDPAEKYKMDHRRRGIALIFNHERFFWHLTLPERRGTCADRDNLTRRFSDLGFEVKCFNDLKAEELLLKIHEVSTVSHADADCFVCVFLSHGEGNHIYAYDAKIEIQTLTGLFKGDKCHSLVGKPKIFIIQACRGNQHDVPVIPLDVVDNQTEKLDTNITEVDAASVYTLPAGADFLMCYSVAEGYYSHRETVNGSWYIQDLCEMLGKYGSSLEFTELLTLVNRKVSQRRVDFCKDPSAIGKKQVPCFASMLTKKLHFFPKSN
Nature of the series: Inhibition of recombinant human caspase-6 expressed in Escherichia coli using Ac-VEID-AMC as substrate preincubated for 30 mins before substrate addition measured after 2 hrs.

In series [3] the target is T2, Caspase-3 (Homo sapiens, UniProt P42574).
T2 sequence (P42574 whole entry): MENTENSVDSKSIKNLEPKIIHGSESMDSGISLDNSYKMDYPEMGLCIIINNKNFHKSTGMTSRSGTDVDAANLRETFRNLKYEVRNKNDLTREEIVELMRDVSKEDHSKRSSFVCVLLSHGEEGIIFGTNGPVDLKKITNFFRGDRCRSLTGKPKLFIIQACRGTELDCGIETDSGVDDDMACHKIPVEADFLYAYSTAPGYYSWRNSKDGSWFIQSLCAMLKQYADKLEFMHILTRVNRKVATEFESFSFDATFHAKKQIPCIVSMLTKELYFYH
The series is described as follows: Inhibition of recombinant human caspase-3 expressed in Escherichia coli using Ac-DEVD-AMC as substrate preincubated for 30 mins before substrate addition measured after 2 hrs.

Series [4] concerns the target T3, Caspase-1 (Homo sapiens, UniProt P29466).
T3 sequence (P29466 whole entry): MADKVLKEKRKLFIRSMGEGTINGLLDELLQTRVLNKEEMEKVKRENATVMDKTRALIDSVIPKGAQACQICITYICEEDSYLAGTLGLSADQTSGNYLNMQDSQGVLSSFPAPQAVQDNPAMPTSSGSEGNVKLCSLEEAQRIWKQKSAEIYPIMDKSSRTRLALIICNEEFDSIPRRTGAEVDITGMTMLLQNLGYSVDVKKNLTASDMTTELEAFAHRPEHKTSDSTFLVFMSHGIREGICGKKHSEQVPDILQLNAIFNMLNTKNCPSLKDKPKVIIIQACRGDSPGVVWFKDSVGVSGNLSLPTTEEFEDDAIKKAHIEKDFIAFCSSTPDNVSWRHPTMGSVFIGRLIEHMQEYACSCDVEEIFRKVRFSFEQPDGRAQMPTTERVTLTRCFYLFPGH
Nature of the series: Inhibition of recombinant human caspase-1 expressed in Escherichia coli using Ac-YVAD-AMC as substrate preincubated for 30 mins before substrate addition measured after 2 hrs.

Series [5] can be described thus: Lipophilicity, log P of the compound by HPLC method. Type of series: physicochemical.
For series [6], the target named is T4, Caspase-7 (Homo sapiens, UniProt P55210).
T4 sequence (P55210 whole entry): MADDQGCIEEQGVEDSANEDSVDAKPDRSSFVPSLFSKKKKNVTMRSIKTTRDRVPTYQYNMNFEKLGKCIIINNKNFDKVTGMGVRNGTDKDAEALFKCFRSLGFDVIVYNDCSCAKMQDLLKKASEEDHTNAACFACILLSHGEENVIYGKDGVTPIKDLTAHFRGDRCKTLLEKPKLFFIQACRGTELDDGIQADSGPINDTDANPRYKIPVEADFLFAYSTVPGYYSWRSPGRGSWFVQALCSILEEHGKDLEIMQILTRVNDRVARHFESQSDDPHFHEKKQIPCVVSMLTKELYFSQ
Nature of the series: Inhibition of recombinant human caspase-7 expressed in Escherichia coli using Ac-DEVD-AMC as substrate preincubated for 30 mins before substrate addition measured after 2 hrs.

Sequence of Caspase-8 (Q14790 217-374 limits assumed): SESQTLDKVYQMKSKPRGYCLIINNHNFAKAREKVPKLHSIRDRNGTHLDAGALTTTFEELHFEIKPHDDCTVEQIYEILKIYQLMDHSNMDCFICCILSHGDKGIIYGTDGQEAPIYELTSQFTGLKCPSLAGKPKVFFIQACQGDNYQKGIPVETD
Sequence of Caspase-8 (Q14790 385-479 limits assumed): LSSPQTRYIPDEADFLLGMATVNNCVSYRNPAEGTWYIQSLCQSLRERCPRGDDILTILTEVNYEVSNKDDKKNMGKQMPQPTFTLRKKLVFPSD

What is called IC50 is the midpoint of a concentration-inhibition curve. As usually defined, the logP is a log measure of how a compound divides between an organic and an aqueous phase. Consider `O=C1C(=O)N(Cc2ccc(OCCF)cc2)c2ccc(S(=O)(=O)N3CCC[C@H]3COc3ccccc3)cc21`, for which the IC50 in series [1] is above 10000 nM; in series [2], above 10000 nM; in series [3], 6.1 nM; in series [4] it was above 10000 nM. In series [5], this molecule displayed a logP of 3.78.

`COC[C@@H]1CCCN1S(=O)(=O)c1ccc2c(c1)C(=O)C(=O)N2Cc1ccc(OCCF)cc1`: the IC50 in series [1] was above 10000 nM; in series [6], 4.6 nM; in series [2], above 10000 nM; in series [3], 8.3 nM; in series [4] it was above 10000 nM. For the same molecule, the logP in series [5] worked out at 2.08.

As for `COC[C@@H]1CCCN1S(=O)(=O)c1ccc2c(c1)C(=O)C(=O)N2Cc1ccc(OC)cc1`, the IC50 is above 10000 nM in series [1]; 6.1 nM in series [6]; above 10000 nM in series [2]; 17.6 nM in series [3]; above 10000 nM in series [4]. Besides, in series [5], the logP was found to be 2.2.

`O=C1C(=O)N(Cc2ccccc2[N+](=O)[O-])c2ccc(S(=O)(=O)N3CCC[C@H]3CF)cc21`: the IC50 in series [1] was above 10000 nM; in series [6], 19.8 nM; in series [2], 5080 nM; in series [3] it was 3.1 nM; in series [4], 672 nM. Besides, the logP in series [5] stood at 2.28.

Turning to `O=C1C(=O)N(Cc2cccc([N+](=O)[O-])c2)c2ccc(S(=O)(=O)N3CCC[C@H]3CF)cc21`, the IC50 was above 10000 nM in series [1]; 16.5 nM in series [6]; above 10000 nM in series [2]; 12.8 nM in series [3]; 4690 nM in series [4]. The molecule further yielded a logP in series [5] of 2.28.

Turning to `O=C1C(=O)N(Cc2ccc([N+](=O)[O-])cc2)c2ccc(S(=O)(=O)N3CCC[C@H]3CF)cc21`, the half-inhibitory concentration (IC50) in series [1] was above 10000 nM; in series [6] it was 11.2 nM; in series [2] it was above 10000 nM; in series [3] it was 6.3 nM; in series [4], above 10000 nM. This molecule returned a logP in series [5] of 2.39.

Consider `O=C1C(=O)N(Cc2nnnn2Cc2ccccc2)c2ccc(S(=O)(=O)N3CCC[C@H]3CF)cc21`, for which the IC50 in series [1] was above 10000 nM; in series [6] it was 25.3 nM; in series [2], above 10000 nM; in series [3] it was 4.4 nM; in series [4] it was 1880 nM. In addition, the logP in series [5] is 1.94.

On to `O=C1C(=O)N(Cc2ccc(OCCF)cc2)c2ccc(S(=O)(=O)N3CC4CNCC4C3)cc21` (stereo unspecified), for which the IC50 was above 10000 nM in series [1]; 3510 nM in series [6]; above 10000 nM in series [2]; 2210 nM in series [3]; above 10000 nM in series [4]. The logP in series [5] amounted to 1.19.

As for `O=C1C(=O)N(Cc2ccc(OCCF)cc2)c2ccc(S(=O)(=O)N3CCC[C@H]3CF)cc21`, the IC50 in series [1] was above 10000 nM; in series [6], 41.4 nM; in series [2] it was above 10000 nM; in series [3], 19.2 nM; in series [4], above 10000 nM. This molecule also returned a logP in series [5] of 2.33.

Regarding `O=C1C(=O)N(Cc2ccccc2)c2ccc(S(=O)(=O)N3CCC[C@H]3CF)cc21`, the IC50 in series [1] was above 10000 nM; in series [6] it was 20.4 nM; in series [2] it was above 10000 nM; in series [3], 13.9 nM; in series [4] it was above 10000 nM. In series [5], this molecule registered a logP of 2.61.

In the case of `O=C1C(=O)N(Cc2ccc(Br)cc2)c2ccc(S(=O)(=O)N3CCC[C@H]3CF)cc21`, the IC50 is above 10000 nM in series [1]; 15.9 nM in series [6]; above 10000 nM in series [2]; 6.2 nM in series [3]; above 10000 nM in series [4]. The same molecule displayed a logP in series [5] of 3.11.

For the molecule `O=C1C(=O)N(Cc2ccc(Cl)cc2)c2ccc(S(=O)(=O)N3CCC[C@H]3CF)cc21`, the IC50 in series [1] is above 10000 nM; in series [6], 14.2 nM; in series [2], above 10000 nM; in series [3], 7.1 nM; in series [4] it was above 10000 nM. Further, the logP in series [5] worked out at 2.96.

For the molecule `O=C1C(=O)N(Cc2ccc(F)cc2)c2ccc(S(=O)(=O)N3CCC[C@H]3CF)cc21`, the IC50 in series [1] was above 10000 nM; in series [6], 14 nM; in series [2], above 10000 nM; in series [3], 15.2 nM; in series [4], above 10000 nM. Further, the logP in series [5] stood at 2.5.

As for `O=C1C(=O)N(Cc2ccccc2I)c2ccc(S(=O)(=O)N3CCC[C@H]3CF)cc21`, the IC50 in series [1] was above 10000 nM; in series [6], 24 nM; in series [2], 3880 nM; in series [3] it was 9.6 nM; in series [4] it was 522 nM. The same molecule gave a logP in series [5] of 3.25.

Take `O=C1C(=O)N(Cc2cccc(I)c2)c2ccc(S(=O)(=O)N3CCC[C@H]3CF)cc21`: the IC50 in series [1] is above 10000 nM; in series [6] it was 21.8 nM; in series [2], above 10000 nM; in series [3], 11.6 nM; in series [4], 1700 nM. This molecule had a logP in series [5] of 3.21.

Consider `O=C1C(=O)N(Cc2ccc(I)cc2)c2ccc(S(=O)(=O)N3CCC[C@H]3CF)cc21`, for which the IC50 in series [1] was above 10000 nM; in series [6], 5.4 nM; in series [2], 3790 nM; in series [3] it was 8.1 nM; in series [4] it was above 10000 nM. In series [5], this molecule yielded a log partition coefficient (logP) of 3.31.

With `COc1ccc(CN2C(=O)C(=O)c3cc(S(=O)(=O)N4CCC[C@H]4CF)ccc32)cc1`, the IC50 is above 10000 nM in series [1]; 9.6 nM in series [6]; above 10000 nM in series [2]; 13.7 nM in series [3]; above 10000 nM in series [4]. In addition, the logP in series [5] was determined as 2.65.
